Laboratory results from patent US9363996B2, “Compositions and method for blocking ethylene response in field crops using 3-(cy-clopropyl-l-enyl)-propanoic salt” (Yissum Research Development Company of the Hebrew …, priority 2009, dated 2016).

Experiments:
young cotton seedlings = assay: Ethylene-induced leaf epinasty of young cotton seedlings; assay type: in vivo, cotton (Gossyium hirsutum barbadense L.)
Method: (1) Abscission-This is a very sensitive model system for studying the effects of plant hormones. Ethylene induces the process of abscission, while auxin delays it. In the laboratory the experimental system is based on plant organ explants, which include the abscission zone. Abscission is induced by exposure to ethylene and at the termination of the experiment the number of abscised organs, usually either leaf blades or petioles are counted and the fraction of abscission is calculated. In the case of fruit, the decrease in fruit retention force is analyzed. […] The plants or explants are then further exposed for 24 h to ethylene gas (5 to 20 μL L^-1). The plants or explants are then ventilated and incubated for the required time under controlled conditions. At the end of the experiment the percentage of abscission is determined. […] Plant material (whole plants, excised leaves or leaf discs) are pretreated. […] The plants or explants are then ventilated and incubated for the required time under controlled conditions. At the end of the experiment a dimethylsulfoxide (DMSO) extract of the plant tissue is prepared, and the chlorophyll content of the extract is determined by spectrophotometric analysis. […] The extent of ethylene-induced epinasty of leaves is determined by measuring the change of the angle between the petiole and the stem shoot or blade. […]

wheat plants = assay: Ethephon-induced chlorophyll degradation in wheat leaves, glumes and chaffs; assay type: in vivo, wheat (Triticum turgidum var. 'Gdera'); details: for Ethephon-induced decrease in the content of chlorophyll: WS-CPD 45 μg mL^−1
Method: (1) Abscission—This is a very sensitive model system for studying the effects of plant hormones. Ethylene induces the process of abscission, while auxin delays it. In the laboratory the experimental system is based on plant organ explants, which include the abscission zone. Abscission is induced by exposure to ethylene and at the termination of the experiment the number of abscised organs, usually either leaf blades or petioles are counted and the fraction of abscission is calculated. In the case of fruit, the decrease in fruit retention force is analyzed. In cotton, when WS-CPD (the ethylene-action antagonist herein disclosed) is tested, the whole plants or explants are pretreated by spraying with the antagonist, dissolved in a phosphate buffer solution (10-20 mM, pH 7.0) including 0.1% commercially available Kinetic™ as surfactant, and left to incubate for a predetermined time, usually between 6 and 24 h. The plants or explants are then further exposed for 24 h to ethylene gas (5 to 20 μL L^−1). The plants or explants are then ventilated and incubated for the required time under controlled conditions. At the end of the experiment the percentage of abscission is determined. (2) Chlorophyll degradation—This is a standard model for studying senescence. Plant material (whole plants, excised leaves or leaf discs) are pretreated. In cotton, tobacco and wheat, when WS-CPD is tested, the whole plants or explants are pretreated by spraying with the antagonist, dissolved in phosphate buffer solution (10-20 mM, pH 7.0) including 0.1% commercially available Kinetic™ surfactant, and left to incubate for a predetermined time, usually between 6 and 241. The plants or explants are then further exposed for 24 h to ethylene gas (1 to 100 μL L^−1), or sprayed with Ethephon™ (wheat; 250 to 750 μL L^−1). The plants or explants are then ventilated and incubated for the required time under controlled conditions. At the end of the experiment a dimethylsulfoxide (DMSO) extract of the plant tissue is prepared, and the chlorophyll content of the extract is determined by spectrophotometric analysis. The chlorophyll content is reported either on a fresh, dry weight basis, or on a surface area basis. (3) Epinasty—This is also one of the classical methods for studying ethylene effects in plants. The extent of ethylene-induced epinasty of leaves is determined by measuring the change of the angle between the petiole and the stem shoot or blade. After exposure of the intact plant to ethylene, the upright grown leaves bend downward. The increase in the angle values (degrees) between petiole and the stem is used as a measure of the effect of the ethylene. When WS-CPD is tested on cotton and wheat plants, the whole plants are pretreated by spraying with the antagonist dissolved in phosphate buffer solution (10-20 mM, pH 7.6) including 0.1% Kinetic™ as surfactant, and left to incubate for a predetermined time, usually between 6 and 24 h. The plants are then further exposed for 24 h to ethylene gas (cotton, 5 to 10 μL L^−1), or sprayed with Ethephon™ (wheat, 250 to 750 μL L^−1). The plants are then ventilated and incubated for the required time under controlled conditions. The epinastic effect is expressed by measuring the degree values of the downward curvature between the blade and petiole (cotton, FIGS. 1-3) or between the blade and the stem (wheat, FIGS. 31 and 32). (4) Wheat Grain yield—This is a common test of the effects of exposure of monocot plants either to environmental stresses such as drought that induce senescence by increasing endogenous ethylene production. Excessive internal or external ethylene will accelerate senescence which will lead to reduced grain yield. In this project the intact plants were grown in the greenhouse up to the spike hading at milky stage I and II. The plants were then sprayed with the dissolved WS-CPD in phosphate buffer solution (10 mM, pH 7.6) including 0.1% Kinetic™ as surfactant. Young Cotton Seedlings […]

For `O=C([O-])CCC1=CC1.[Na+]` [WS-CPD, 3-cyclopropyl-1-enyl-propanoic sodium salt], the ethylene-induced leaf epinasty (young cotton seedlings; WS-CPD 10 and 30 μg mL^−1, ethylene 10 μL L^−1) was “completely reversed”, the ethylene-induced epinasty (young cotton seedlings; WS-CPD spray 10 to 300 μg mL^−1, 24 h later ethylene 10 μL L^−1 for 24 h, three-week-old seedlings) was “completely antagonized” and the “Ethephon-induced chlorophyll degradation in the glumes and chaffs” value (wheat plants; WS-CPD 62 μg mL^−1, Ethephon 250 μL L^−1) was “completely reversed”. The “decrease of chlorophyll content in the flag leaf” value (wheat plants; WS-CPD 312 μg mL^−1, Ethephon 250 μL L^−1, milky stage I) was “almost completely antagonized”, the “chlorophyll decrease induced by Ethephon” value (wheat plants; WS-CPD 415 μg mL^−1, Ethephon 750 μL L^−1, both types of leaves, milky stage I) was “only slightly antagonized” and the “Ethephon-induced decrease of chlorophyll” value (wheat plants; WS-CPD 12 to 62 μg mL^−1, milky stage I, mainly flag leaf, also leaf II) was “significantly reduced”. The “effect on chlorophyll in leaves treated with Ethephon” value (wheat plants; WS-CPD 15 to 135 μg L^−1 (so in the source), Ethephon 750 μL L^−1, milky stage II) was “not effective”, the “decrease in the chlorophyll titer in the treated spike-chaffs” value (wheat plants; WS-CPD 15 to 135 μg L^−1 (so in the source), Ethephon 750 μL L^−1, milky stage II, insignificant) was 3% and the “Ethephon-induced decrease in the content of chlorophyll” value (wheat plants; chaffs, Ethephon 750 μL L^−1) was “markedly antagonized”. The “increase of chlorophyll content above control untreated plants” value (wheat plants; chaffs, WS-CPD 62 μg mL^−1, Ethephon 250 μL L^−1) was 10%, the “Ethephon-induced decrease in the content of chlorophyll” value (wheat plants; glumes, Ethephon 750 μL L^−1) was “much less effective” and the “increase of chlorophyll content above control untreated plants” value (wheat plants; glumes, WS-CPD 62 μg mL^−1, Ethephon 250 μL L^−1) was 60%.
